# Read-outs that look alike come from different tables or passages of the source.
# Key:
# human ACC2 = human ACC2 (Homo sapiens (Human), UniProt O00763); format: biochemical; settings: for IC50: human ACC2, read-out: IC50 (hACC2)
# human ACC1 = human ACC1 (Homo sapiens (Human), UniProt Q13085)
# rACC1 = rACC1 (Rattus norvegicus (Rat), UniProt P11497); assay: Enzymatic assay of ACC inhibitors, rat ACC1; format: biochemical
# Method: The enzymatic activity of ACC and its inhibition by test substances were determined by a luminometric assay. The reaction mixture contained 50 mM tris acetate (Merck, #1.08382.1000), pH 7.5, 250 μM acetyl coenzyme A (Sigma, #A2181),16 mM NaHCO3 (Merck, #1.06329.0500), 0.9 mg/ml bovine serum albumin (Sigma, #A8806), 25 μM ATP (Sigma, #A7699), 1.1 μM β-mercaptoethanol (Roth, #4227,1), 4.3 mM magnesium acetate ((Merck, #1.05819.0250), 10 mM sodium citrate (Merck, #1.06448.0500) and 200-400 ng of the ACC preparations. The mixture also contained a test compound. The test compounds were each dissolved in 10 mM DMSO and were assayed at final concentrations of 0 μM, 0.01 μM, 0.03 μM, 0.1 μM, 0.3 μM, 1 μM, 3 μM, 10 μM, 30 μM and 100 μM. The final concentration of the DMSO in the assay was 0.1% (v/v). The reaction was started by adding ACC and was carried out at 37° C. for 90 min. The reaction was then stopped by adding 150 μl of 0.5 M tris acetate. […] After incubation for 10 min, the luminescence was measured in a luminometer (Tecan Genios Pro).
# The crude luminescence data were transferred into a Microsoft Excel file. The luminescence measured in the absence of ACC in the reaction mixture was defined as 100%. […] Dose-effect plots were calculated with the XL.Fit program as specified by the producer (IDBS). […]
# [1] = system: C2C12 mouse muscle cell line; assay: Palmitate oxidation in a mouse muscle cell line (C2C12); format: cell-based; settings: 10 μM
# Method: In another pharmacological test both compounds were tested for palmitate oxidation in a mouse muscle cell line (C2C12) which is also mediated by ACC inhibition.
# rACC2 = rACC2 (Rattus norvegicus, UniProt O70151); assay: Enzymatic assay of ACC inhibitors, rat ACC2; format: biochemical
# Method: The enzymatic activity of ACC and its inhibition by test substances were determined by a luminometric assay. The reaction mixture contained 50 mM tris acetate (Merck, #1.08382.1000), pH 7.5, 250 μM acetyl coenzyme A (Sigma, #A2181),16 mM NaHCO3 (Merck, #1.06329.0500), 0.9 mg/ml bovine serum albumin (Sigma, #A8806), 25 μM ATP (Sigma, #A7699), 1.1 μM β-mercaptoethanol (Roth, #4227,1), 4.3 mM magnesium acetate ((Merck, #1.05819.0250), 10 mM sodium citrate (Merck, #1.06448.0500) and 200-400 ng of the ACC preparations. The mixture also contained a test compound. The test compounds were each dissolved in 10 mM DMSO and were assayed at final concentrations of 0 μM, 0.01 μM, 0.03 μM, 0.1 μM, 0.3 μM, 1 μM, 3 μM, 10 μM, 30 μM and 100 μM. The final concentration of the DMSO in the assay was 0.1% (v/v). The reaction was started by adding ACC and was carried out at 37° C. for 90 min. The reaction was then stopped by adding 150 μl of 0.5 M tris acetate. 10 μl of the mixture were removed and mixed with 90 μl of ATP monitoring reagent (Cambrex, #LT27-002). After incubation for 10 min, the luminescence was measured in a luminometer (Tecan Genios Pro).
# The crude luminescence data were transferred into a Microsoft Excel file. The luminescence measured in the absence of ACC in the reaction mixture was defined as 100%. The value in the presence of ACC with 0 μM test compound was set at 0%. Dose-effect plots were calculated with the XL.Fit program as specified by the producer (IDBS). The IC50 of a test substance was the concentration of the test compound at which a luminescence of 50% was measured.
# [2] = relative to comparative example 59
# [3] = relative to comparative example 59, respective rat ACC isoforms
# human ACC2, sequence (O00763 151-2458): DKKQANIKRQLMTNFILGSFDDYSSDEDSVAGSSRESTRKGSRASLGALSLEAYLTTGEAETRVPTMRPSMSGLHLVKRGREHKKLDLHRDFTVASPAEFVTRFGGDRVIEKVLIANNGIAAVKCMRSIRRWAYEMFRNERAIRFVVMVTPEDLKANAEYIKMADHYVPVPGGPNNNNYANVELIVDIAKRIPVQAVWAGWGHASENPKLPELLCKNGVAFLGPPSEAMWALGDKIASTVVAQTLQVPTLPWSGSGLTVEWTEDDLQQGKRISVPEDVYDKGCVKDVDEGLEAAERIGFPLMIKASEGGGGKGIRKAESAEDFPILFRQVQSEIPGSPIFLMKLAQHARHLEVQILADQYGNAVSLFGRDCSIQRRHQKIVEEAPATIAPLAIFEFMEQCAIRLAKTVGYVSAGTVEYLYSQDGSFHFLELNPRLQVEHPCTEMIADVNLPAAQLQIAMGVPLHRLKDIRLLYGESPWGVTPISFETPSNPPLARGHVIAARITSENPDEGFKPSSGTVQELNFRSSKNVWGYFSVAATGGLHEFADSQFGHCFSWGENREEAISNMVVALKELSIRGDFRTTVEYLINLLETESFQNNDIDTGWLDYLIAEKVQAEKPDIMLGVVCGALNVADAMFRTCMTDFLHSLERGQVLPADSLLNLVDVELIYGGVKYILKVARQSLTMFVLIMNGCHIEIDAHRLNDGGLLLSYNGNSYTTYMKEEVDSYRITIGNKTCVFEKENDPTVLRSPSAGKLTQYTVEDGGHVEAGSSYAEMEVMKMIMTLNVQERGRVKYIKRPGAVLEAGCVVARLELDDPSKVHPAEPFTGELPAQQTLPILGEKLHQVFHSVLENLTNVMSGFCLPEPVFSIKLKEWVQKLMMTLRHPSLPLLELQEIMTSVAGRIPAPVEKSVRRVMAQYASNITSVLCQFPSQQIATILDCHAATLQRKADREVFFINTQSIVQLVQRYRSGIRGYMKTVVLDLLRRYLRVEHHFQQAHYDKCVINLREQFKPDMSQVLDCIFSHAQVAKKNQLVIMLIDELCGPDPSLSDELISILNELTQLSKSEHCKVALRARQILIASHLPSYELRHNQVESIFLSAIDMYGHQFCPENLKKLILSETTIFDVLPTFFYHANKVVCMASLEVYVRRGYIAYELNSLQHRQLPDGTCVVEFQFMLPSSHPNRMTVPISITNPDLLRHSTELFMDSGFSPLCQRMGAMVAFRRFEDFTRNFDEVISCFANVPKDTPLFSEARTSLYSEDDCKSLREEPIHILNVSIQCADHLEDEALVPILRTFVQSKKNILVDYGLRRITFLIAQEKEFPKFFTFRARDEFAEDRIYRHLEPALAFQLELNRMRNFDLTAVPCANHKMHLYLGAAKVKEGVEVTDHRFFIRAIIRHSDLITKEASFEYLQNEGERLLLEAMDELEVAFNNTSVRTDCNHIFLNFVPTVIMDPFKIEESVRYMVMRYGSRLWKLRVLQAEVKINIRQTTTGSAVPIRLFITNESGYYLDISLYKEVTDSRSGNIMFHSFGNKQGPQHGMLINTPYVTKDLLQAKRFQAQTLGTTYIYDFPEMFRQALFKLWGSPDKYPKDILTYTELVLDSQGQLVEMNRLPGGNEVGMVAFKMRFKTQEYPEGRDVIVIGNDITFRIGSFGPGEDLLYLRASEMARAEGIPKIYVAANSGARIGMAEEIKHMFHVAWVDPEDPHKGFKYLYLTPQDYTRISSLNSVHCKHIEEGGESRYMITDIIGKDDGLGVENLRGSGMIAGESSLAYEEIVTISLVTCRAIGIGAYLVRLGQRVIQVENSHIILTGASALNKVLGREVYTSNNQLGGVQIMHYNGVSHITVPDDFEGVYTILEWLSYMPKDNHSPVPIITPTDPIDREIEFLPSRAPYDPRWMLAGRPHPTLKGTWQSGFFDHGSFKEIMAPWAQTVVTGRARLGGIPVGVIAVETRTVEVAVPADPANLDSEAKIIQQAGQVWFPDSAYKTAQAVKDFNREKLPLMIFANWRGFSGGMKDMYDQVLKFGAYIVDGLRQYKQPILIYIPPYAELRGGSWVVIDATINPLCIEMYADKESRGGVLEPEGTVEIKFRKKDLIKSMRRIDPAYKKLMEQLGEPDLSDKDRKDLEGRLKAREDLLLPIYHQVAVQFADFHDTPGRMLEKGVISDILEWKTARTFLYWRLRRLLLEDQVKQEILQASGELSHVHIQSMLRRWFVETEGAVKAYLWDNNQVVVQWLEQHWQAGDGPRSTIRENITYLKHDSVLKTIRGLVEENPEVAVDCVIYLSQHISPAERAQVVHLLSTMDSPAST
# rACC2, sequence (O70151 1-2456): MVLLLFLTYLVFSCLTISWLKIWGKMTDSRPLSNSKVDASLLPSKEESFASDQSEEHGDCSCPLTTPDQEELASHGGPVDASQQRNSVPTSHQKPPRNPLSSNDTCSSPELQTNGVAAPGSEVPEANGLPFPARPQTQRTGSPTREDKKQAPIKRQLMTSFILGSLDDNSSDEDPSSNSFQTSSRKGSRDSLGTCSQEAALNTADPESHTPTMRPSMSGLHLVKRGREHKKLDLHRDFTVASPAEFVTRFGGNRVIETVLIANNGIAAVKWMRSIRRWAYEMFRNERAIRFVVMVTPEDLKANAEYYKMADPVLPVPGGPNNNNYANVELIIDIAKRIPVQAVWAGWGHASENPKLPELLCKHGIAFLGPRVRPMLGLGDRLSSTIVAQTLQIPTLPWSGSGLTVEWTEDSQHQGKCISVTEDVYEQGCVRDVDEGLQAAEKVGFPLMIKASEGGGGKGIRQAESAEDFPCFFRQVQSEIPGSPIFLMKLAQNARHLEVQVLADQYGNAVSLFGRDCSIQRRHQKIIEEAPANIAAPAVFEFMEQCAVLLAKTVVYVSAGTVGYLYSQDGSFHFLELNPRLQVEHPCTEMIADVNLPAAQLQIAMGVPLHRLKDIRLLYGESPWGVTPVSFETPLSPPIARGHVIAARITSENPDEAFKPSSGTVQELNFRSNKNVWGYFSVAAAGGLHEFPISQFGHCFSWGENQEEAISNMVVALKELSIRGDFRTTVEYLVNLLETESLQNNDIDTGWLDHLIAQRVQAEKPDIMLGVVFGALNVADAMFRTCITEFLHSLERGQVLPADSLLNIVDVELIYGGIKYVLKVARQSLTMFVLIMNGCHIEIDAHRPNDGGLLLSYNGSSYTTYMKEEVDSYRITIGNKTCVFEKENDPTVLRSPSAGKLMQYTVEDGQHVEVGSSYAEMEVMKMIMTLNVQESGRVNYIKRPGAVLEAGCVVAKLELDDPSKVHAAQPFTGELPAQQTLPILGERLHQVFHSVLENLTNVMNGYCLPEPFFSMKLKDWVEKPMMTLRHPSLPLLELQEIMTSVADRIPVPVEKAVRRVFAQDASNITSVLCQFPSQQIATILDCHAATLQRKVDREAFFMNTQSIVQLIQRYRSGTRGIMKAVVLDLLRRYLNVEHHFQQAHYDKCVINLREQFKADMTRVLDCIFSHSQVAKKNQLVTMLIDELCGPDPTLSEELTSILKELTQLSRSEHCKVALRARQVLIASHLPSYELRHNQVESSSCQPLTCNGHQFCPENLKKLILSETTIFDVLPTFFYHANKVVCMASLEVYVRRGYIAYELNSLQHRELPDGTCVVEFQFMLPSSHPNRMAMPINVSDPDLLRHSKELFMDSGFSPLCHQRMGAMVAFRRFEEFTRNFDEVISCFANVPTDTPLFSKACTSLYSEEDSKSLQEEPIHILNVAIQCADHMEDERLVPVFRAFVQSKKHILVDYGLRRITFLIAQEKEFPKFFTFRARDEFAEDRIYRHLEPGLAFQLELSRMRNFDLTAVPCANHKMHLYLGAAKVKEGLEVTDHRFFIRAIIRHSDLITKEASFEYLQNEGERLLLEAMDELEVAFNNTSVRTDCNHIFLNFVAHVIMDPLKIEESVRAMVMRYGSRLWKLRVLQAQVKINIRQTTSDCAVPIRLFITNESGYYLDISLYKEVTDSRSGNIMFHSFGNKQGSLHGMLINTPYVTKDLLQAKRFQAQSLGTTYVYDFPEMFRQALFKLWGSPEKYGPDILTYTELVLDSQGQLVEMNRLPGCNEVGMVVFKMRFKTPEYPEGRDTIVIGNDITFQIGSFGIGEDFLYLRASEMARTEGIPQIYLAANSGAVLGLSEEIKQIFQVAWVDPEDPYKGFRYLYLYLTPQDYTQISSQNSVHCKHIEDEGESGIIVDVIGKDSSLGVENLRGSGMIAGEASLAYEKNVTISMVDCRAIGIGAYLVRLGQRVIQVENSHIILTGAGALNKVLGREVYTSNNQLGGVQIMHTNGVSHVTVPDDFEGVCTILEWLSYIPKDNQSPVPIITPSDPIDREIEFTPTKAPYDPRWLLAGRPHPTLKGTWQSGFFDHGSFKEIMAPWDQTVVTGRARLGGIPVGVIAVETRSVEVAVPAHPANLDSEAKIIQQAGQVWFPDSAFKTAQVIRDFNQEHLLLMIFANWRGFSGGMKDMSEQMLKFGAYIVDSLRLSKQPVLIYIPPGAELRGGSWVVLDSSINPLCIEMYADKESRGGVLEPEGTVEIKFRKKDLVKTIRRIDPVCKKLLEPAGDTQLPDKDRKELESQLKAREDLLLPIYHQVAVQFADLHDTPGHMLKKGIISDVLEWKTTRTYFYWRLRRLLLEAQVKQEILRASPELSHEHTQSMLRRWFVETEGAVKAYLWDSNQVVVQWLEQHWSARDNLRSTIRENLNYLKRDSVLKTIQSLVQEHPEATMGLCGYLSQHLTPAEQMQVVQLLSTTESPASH
Compound,IC50 (human ACC2),further results
"CCCOc1ccc(Oc2ccc(CCC(C)NC(C)=O)cc2)nc1 (centres unmarked) [Example 11, N-{1-Methyl-3-[4-(5-propoxypyridin-2-yloxy)phenyl]propyl}acetamide]",140 nM,–
"CC(=O)NC(C)CCc1ccc(Oc2ccc(OCC3CCC3)cn2)cc1 (centres unmarked) [Example 12, N-{3-[4-(5-Cyclobutylmethoxypyridin-2-yloxy)phenyl]-1-methylpropyl}acetamide]",50 nM,–
"CC(=O)NC(C)CCc1ccc(Oc2ccc(OCc3ccccc3)cn2)cc1 (centres unmarked) [Example 9, N-{3-[4-(5-Benzyloxypyridin-2-yloxy)phenyl]-1-methylpropyl}acetamide]",140 nM,–
"CC(=O)NC(C)CCc1ccc(Oc2ccc(OC(C)C)nc2)cc1 (centres unmarked) [Example 33, N-{3-[4-(6-Isopropoxypyridin-3-yloxy)phenyl]-1-methylpropyl}acetamide]",60 nM,–
"CC(=O)NC(C)CCc1ccc(Oc2ccc(OCc3ccccc3)nc2)cc1 (centres unmarked) [Example 36, N-{3-[4-(6-Benzyloxypyridin-3-yloxy)phenyl]-1-methylpropyl}acetamide]",70 nM,–
"CC(=O)NCCC[C@H]1OC[C@H](Oc2ccc(OCc3ccccc3)cc2)CO1 [Example 4, trans-N-{3-[5-(4-benzyloxyphenoxy)-[1,3]dioxan-2-yl]propyl}acetamide]",400 nM,–
"COC(=O)NC(C)CCc1ccc(Oc2ccc(OC(C)C)nc2)cc1 (centres unmarked) [Example 46, Methyl {3-[4-(6-isopropoxypyridin-3-yloxy)phenyl]-1-methylpropyl}carbamate]",210 nM,–
"CC(=O)NC(C)COc1ccc(Oc2ccc(OC(C)C)cn2)cc1 (centres unmarked) [Example 27, N-{2-[4-(5-Isopropoxypyridin-2-yloxy)phenoxy]-1-methylethyl}acetamide]",1300 nM,–
"CC(=O)NC(C)CCc1ccc(Oc2ccc(OCC3CC3)nc2)cc1 (centres unmarked) [Example 50, N-{3-[4-(6-Cyclopropylmethoxypyridin-3-yloxy)phenyl]-1-methylpropyl}acetamide]",170 nM,–
"CC(=O)NC(C)CCc1ccc(Oc2ncc(OC(C)C)cc2Cl)cc1 (centres unmarked) [Example 32, N-{3-[4-(3-Chloro-5-isopropoxypyridin-2-yloxy)phenyl]-1-methylpropyl}acetamide]",1300 nM,–
"CC(=O)NCCC[C@H]1OC[C@H](Oc2ccc(OC3CCCC3)cc2)CO1 [Example 6, trans-N-{3-[5-(4-Cyclopentyloxyphenoxy)-[1,3]dioxan-2-yl]propyl}acetamide]",200 nM,–
"CC(CCc1ccc(Oc2ccc(OC(C)C)nc2)cc1)NC(N)=O (centres unmarked) [Example 47, {3-[4-(6-Isopropoxypyridin-3-yloxy)phenyl]-1-methylpropyl}urea]",150 nM,–
"CC(=O)N[C@@H](C)CCc1ccc(Oc2ccc(OCc3ccccc3)cn2)cc1 [Example 19, N—{(S)-3-[4-(5-Benzyloxypyridin-2-yloxy)phenyl]-1-methylpropyl}acetamide]",100 nM,–
"CC(=O)N[C@@H](C)CCc1ccc(Oc2ccc(OC(C)C)nc2)cc1 [Example 35, N—{(S)-3-[4-(6-Isopropoxypyridin-3-yloxy)phenyl]-1-methylpropyl}acetamide]",30 nM,"IC50 (human ACC1; read-out: IC50 hACC (human ACC1), human ACC1, table row printed as hACC): 190 nM; times higher potency than example 59, human ACC1 (human ACC1; [2]): ~40 times; IC50 (rACC1; rat ACC1): 170 nM; times higher potency than example 59, rat ACC1 (rACC1; [3]): > 3 times; stimulation of cellular fat (palmitate) oxidation [1]: 1.7 fold; IC50 (rACC2; rat ACC2, read-out: IC50 rACC2): 400 nM; times higher potency than example 59, rat ACC2 (rACC2; [3]): > 3 times; times higher potency than example 59, human ACC2 (human ACC2; [2]): approx. 5 times"
"CC(=O)NCCC[C@H]1OC[C@H](Oc2ncc(OC(C)C)cc2Cl)CO1 [Example 25, trans-N-{3-[5-(3-chloro-5-isopropoxypyridin-2-yloxy)-[1,3]dioxan-2-yl]propyl}acetamide]",380 nM,–
"CC(=O)N[C@@H](C)COc1ccc(Oc2ccc(OC(C)C)cc2)cc1 [Example 59, N—{(S)-2-[4-(4-Isopropoxyphenoxy)phenoxy]-1-methylethyl}acetamide, reference compound]",–,stimulation of cellular fat (palmitate) oxidation [1]: no effect; IC50 (rACC2): 1500 nM
"CC(=O)NCCC[C@H]1OC[C@H](Oc2ccc(OCc3ccccc3)cn2)CO1 [Example 17, trans-N-{3-[5-(5-benzyloxypyridin-2-yloxy)-[1,3]dioxan-2-yl]propyl}acetamide]",50 nM,–
"CC(=O)NC(C)CCc1cnc(Oc2ccc(OCc3ccccc3)nc2)nc1 (centres unmarked) [Example 37, N-{3-[2-(6-Benzyloxypyridin-3-yloxy)pyrimidin-5-yl]-1-methylpropyl}acetamide]",5900 nM,–
"CC(=O)NC(C)CCc1ccc(Oc2ccc(OC3CCOC3)cn2)cc1 (centres unmarked) [Example 20, N-(1-Methyl-3-{4-[5-(tetrahydrofuran-3-yloxy)pyridin-2-yloxy]phenyl}propyl)acetamide]",3600 nM,–
"CC(=O)NC(C)CCc1ccc(Oc2cnc(OC(C)C)nc2)cc1 (centres unmarked) [Example 40, N-{3-[4-(2-Isopropoxypyrimidin-5-yloxy)phenyl]-1-methylpropyl}acetamide]",740 nM,–
"CC(CCc1ccc(Oc2ccc(OC(C)C)nc2)cc1)NC=O (centres unmarked) [Example 45, N-{3-[4-(6-Isopropoxypyridin-3-yloxy)phenyl]-1-methylpropyl}formamide]",670 nM,–
"CC(=O)NC(C)CCC1CCC(Oc2ccc(OC(C)C)nc2)CC1 (centres unmarked) [Example 52, N-{3-[4-(6-Isopropoxypyridin-3-yloxy)cyclohexyl]-1-methylpropyl}acetamide]",80 nM,–
"CC(=O)N[C@@H](C)COc1ccc(Oc2ccc(OC(C)C)cn2)cc1 [Example 29, N—{(S)-2-[4-(5-Isopropoxypyridin-2-yloxy)phenoxy]-1-methylethyl}acetamide]",1200 nM,–
"CC(CCc1ccc(Oc2ccc(OC(C)C)nc2)cc1)NC(=O)C1CC1 (centres unmarked) [Example 44, N-{3-[4-(6-Isopropoxypyridin-3-yloxy)phenyl]-1-methylpropyl}cyclopropanecarboxamide]",90 nM,–
"CC(CCc1ccc(Oc2ccc(OC(C)C)nc2)cc1)NC(=O)CO (centres unmarked) [Example 48, 2-Hydroxy-N-{3-[4-(6-isopropoxypyridin-3-yloxy)phenyl]-1-methylpropyl}acetamide]",900 nM,–
"CC(=O)NC(C)CCc1ccc(Oc2cnc(OC(C)C)cn2)cc1 (centres unmarked) [Example 49, N-{3-[4-(5-Isopropoxypyrazin-2-yloxy)phenyl]-1-methylpropyl}acetamide]",1200 nM,–
"CC(=O)N[C@@H](C)COc1ccc(Oc2ccc(OC(C)C)cc2)nc1 [Example 39, N—{(S)-2-[6-(4-Isopropoxyphenoxy)pyridin-3-yloxy]-1-methylethyl}acetamide]",2500 nM,–
"CC(=O)NCCC[C@H]1OC[C@H](Oc2ccc(OC(C)C)cn2)CO1 [Example 23, trans-N-{3-[5-(5-isopropoxypyridin-2-yloxy)-[1,3]dioxan-2-yl]-propyl}acetamide]",2000 nM,–
"CC(=O)NC(C)CCc1ccc(Oc2ccc(OC3CCCC3)cn2)cc1 (centres unmarked) [Example 2, N-{3-[4-(5-Cyclopentyloxypyridin-2-yloxy)phenyl]-1-methylpropyl}acetamide]",140 nM,–

# Source: patent US8470841B2, “Heterocyclic compounds, processes for their preparation, medicaments comprising these compounds, and the use thereof” (Sanofi, priority 2008, dated 2013)
